Source: patent US11299762B2, “Nanoscale motion detector” (Ecole Polytechnique Fédérale de Lausanne (EPFL), priority 2011, dated 2022)

Columns and labels:
human Topoisomerase II = test: TopoII adsorbed on AFM cantilever, fluctuation recording (drug affinity detection); type: biochemical
Text: This enzyme requires ATP to modify its 3D conformation and to act on DNA. TopoII is also the preferred target of numerous anticancerous drugs such as aclarubicin. This drug binds to TopoII, freezes its conformation and inhibits its action (15). In the first experiment, TopoII was adsorbed onto both sides of a cantilever. It was than introduced in the analysis chamber of an AFM and its laser beam was collimated on the apex of the cantilever. The reflection of the laser beam, sent to a split photo-detector, allowed detecting the fluctuations of the cantilever as depicted in FIG. 1 and, more in detail, FIG. 3,
The experiment consisted in injecting successively an ATP depleted buffer, an ATP enriched solution and an aclarubicin+ATP rich media in the analysis chamber and by recording the resulting fluctuations of the cantilever.
This experiment was performed using an APTES-coated AFM cantilever. The different buffers injected during experiment are: buffer (50 mM Tris-HCl (pH 8.0), 150 mM NaCl, 10 mM MgCl2, and 0.5 mM dithiothreitol), 0.02 mM ATP and 0.02 mM ATP plus 100 μM aclarubicin.
The media used in this experiment are: buffer (50 mM Tris-HCl (pH 8.0), 150 mM NaCl, 10 mM MgCl2 and 0.5 mM dithiothreitol.), 0.02 mM ATP, 0.2 mM ATP, 2 mM ATP and again buffer.

[1] = system: TopoII-supercoiled DNA complexes; test: TopoII-supercoiled DNA complexes on AFM cantilever, fluctuation recording; type: biochemical, human; settings: 0.02 mM ATP, compared to ATP free buffer or AMPPMP solution
Method: As mentioned previously, TopoII interacts with DNA to simplify its topology. To record this reaction with our method we deposited TopoII-supercoiled DNA complexes on both sides of an AFM cantilever, as depicted in FIG. 6.
The experiment was performed using an APTES-coated AFM cantilever. The different media injected during experiment are: buffer (50 mM Tris-HCl (pH 8.0), 150 mM NaCl, 10 mM MgCl2 and 0.5 mM dithiothreitol), 0.02 mM. AMPPNP (an ATP analogue) and 0.02 mM ATP. […] Panel B depicts the experimental set-up to follow TopoII-DNA interactions. a) DNA molecule, b) TopoII, c) AFM cantilever, d) laser beam. Panel C evidences the differences in terms of the variance.
Here again the cantilever covered with TopoII-supercoiled DNA complexes was inserted in the analysis chamber and exposed to several consecutive liquid environments: 1) ATP free solution, 2) buffer containing a non functional ATP substitute, referred to as AMPPMP 3) ATP enriched medium. AMPPMP is a non-hydrolysable ATP analogue which inhibits TopoII activity.

Escherichia coli = test: Antibiotic sensitivity detection, bacteria adsorbed on cantilever; type: cell-based; settings: FIG. 8
Text: Motile bacteria (Escherichia coli), resistant to kanamycin but sensitive to ampicillin, were adsorbed to both sides of a cantilever. The bacteria were successively exposed to both antibiotics to determine the impact on the bacterial motion/viability (see FIG. 7).
In these experiments the cantilever was introduced in the analysis chamber and exposed to a solution containing bacteria that eventually attached to its surface. The system was then exposed to: 1) nutriment depleted buffer, 2) nutriment solution (Lysogeny broth (LB)), 3) kanamycin-enriched LB solution 4) LB solution 5) ampicillins-enriched LB solution and, finally, 6) LB solution.
The experiment was performed using an APTES-coated AFM cantilever. The different phases of the experiment are depicted: PBS, bacteria in PBS, bacteria in LB, exposure to kanamycin, washing with LB, exposure to ampicillin, washing with LB.

Staphylococcus aureus = test: Antibiotic sensitivity detection, non-motile bacteria on cantilever; type: cell-based; settings: exposure to ampicillin in LB; FIG. 10
Text: Later on, similar experiments were repeated using non-motile bacteria (Staphylococcus aureus) susceptible to ampicillin. […] The results of the cantilever motion RMS are depicted in FIG. 10. In this experiment an APTES-coated AFM cantilever was used. The different phases of the experiment are depicted: PBS, bacteria in PBS, bacteria in LB and exposure to ampicillin.

Structure (SMILES): Nc1ncnc2c1ncn2[C@@H]1O[C@H](COP(=O)(O)OP(=O)(O)OP(=O)(O)O)[C@@H](O)[C@H]1O [ATP]
- variance of the cantilever fluctuations (human Topoisomerase II; 0.02 mM ATP, compared to ATP depleted buffer or aclarubicin, FIG. 4): significantly higher
- conformational changes induced on TopoII (cantilever fluctuation variance) (human Topoisomerase II; 0.02 mM, 0.2 mM, 2 mM ATP, FIG. 5): dependent on its concentration
- cantilever fluctuation variance [1]: significant increase

Structure (SMILES): CC[C@@]1(O)C[C@H](O[C@H]2C[C@H](N(C)C)[C@H](O[C@H]3C[C@H](O)[C@H](O[C@H]4CCC(=O)[C@H](C)O4)[C@H](C)O3)[C@H](C)O2)c2c(cc3c(c2O)C(=O)c2c(O)cccc2C3=O)[C@H]1C(=O)OC [aclarubicin]
- TopoII conformational state (cantilever fluctuation) (human Topoisomerase II; 0.02 mM ATP plus 100 μM aclarubicin, FIG. 4): again in equilibrium

Structure (SMILES): CC1(C)S[C@@H]2[C@H](NC(=O)[C@H](N)c3ccccc3)C(=O)N2[C@H]1C(=O)O [ampicillin]
- bacterial motion (cantilever fluctuations) (Escherichia coli; antibiotic-enriched LB solution, E. coli resistant to kanamycin, sensitive to ampicillin): dramatically decreased
- bacterial motion after washing with LB solution (Escherichia coli; step 6, LB solution after ampicillin exposure): remained at the same value
- internal movements of bacteria (cantilever motion) (Staphylococcus aureus): decreased dramatically
